Where a name gives a salt, the structure may show the parent alone.
What follows are molecules tested against T1, TNIK (Homo sapiens, UniProt Q9UKE5) (assay: ADP-Glo Kinase Assay, inhibition activity on TNIK). Conditions: not given.
T1 construct: purchased Promega V4158
Format: biochemical
Description: The inhibition activities on TNIK, IKKε and TBK1 were measured by a luminometer, TNIK/IKKε/TBK1 Kinase Enzyme System (Promega, Ca# V4158; Invitrogen, PR8031B, Promega, Ca# V3991) and ADP-Glo Kinase Assay using ADP-Glo™ Kinase Analysis Kit (Promega, Ca# V9101) and a kinase reaction buffer [40 mM Tris(pH 7.5), 20 mM MgCl2, 0.1 mg/mL BSA] in accordance with the manufacturer's protocol.

T1 sequence (Q9UKE5 1-367 limits assumed): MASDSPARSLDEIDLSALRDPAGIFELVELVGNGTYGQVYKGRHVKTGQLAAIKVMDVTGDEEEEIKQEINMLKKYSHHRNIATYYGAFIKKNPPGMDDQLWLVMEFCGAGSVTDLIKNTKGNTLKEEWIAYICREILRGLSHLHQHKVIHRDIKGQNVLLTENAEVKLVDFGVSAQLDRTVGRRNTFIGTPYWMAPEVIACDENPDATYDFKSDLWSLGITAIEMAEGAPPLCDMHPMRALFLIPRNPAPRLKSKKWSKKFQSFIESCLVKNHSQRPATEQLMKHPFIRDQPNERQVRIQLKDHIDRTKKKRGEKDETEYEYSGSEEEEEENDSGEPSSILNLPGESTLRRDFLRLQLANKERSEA

TNIK (μM)	Compound
Insoluble	O=C(Nc1ccc(-c2ccncc2)c2c1C(=O)NC2)c1ccccc1 [Example 127, N-(3-oxo-7-(pyridin-4-yl)isoindolin-4-yl)benzamide]

Same assay, conditions: read-out: TNIK

Compound	IC50
COc1ccc(C(=O)Nc2ccc(-c3ccccc3)c3c2C(=O)NC3)cc1 [Example 121, 4-Methoxy-N-(3-oxo-7-phenylisoindolin-4-yl)benzamide]	3400 nM
O=C(Nc1ccc(-c2ccccc2)c2c1C(=O)NC2)c1ccc(F)cc1 [Example 122, 4-Fluoro-N-(3-oxo-7-phenylisoindolin-4-yl)benzamide]	2200 nM
COc1ccc(C(=O)Nc2ccc(-c3ccc(F)cc3)c3c2C(=O)NC3)cc1 [Example 123, N-(7-(4-fluorophenyl)-3-oxoisoindolin-4-yl)-4-methoxy benzamide]	7000 nM
O=C(Nc1ccc(-c2ccncc2)c2c1C(=O)NC2)c1ccccc1 [Example 128, N-(3-oxo-7-(pyridin-4-yl)isoindolin-4-yl)benzamide hydrochloride]	> 20000 nM
COc1ccccc1C(=O)Nc1ccc(-c2ccccc2)c2c1C(=O)NC2 [Example 129, 2-Methoxy-N-(3-oxo-7-phenylisoindolin-4-yl)benzamide]	> 20000 nM
O=C(Nc1ccc(-c2ccccc2)c2c1C(=O)NC2)c1cccc(F)c1 [Example 130, 3-fluoro-N-(3-oxo-7-phenylisoindolin-4-yl)benzamide]	> 20000 nM
CSc1ccc(C(=O)Nc2ccc(-c3ccccc3)c3c2C(=O)NC3)cc1 [Example 131, 4-(Methylthio)-N-(3-oxo-7-phenylisoindolin-4-yl)benzamide]	2300 nM
CCCOc1ccc(-c2ccc(NC(=O)c3ccccc3)c3c2CNC3=O)cc1 [Example 132, N-(3-oxo-7-(4-propoxyphenyl)isoindolin-4-yl)benzamide]	> 20000 nM
CC(C)c1ccc(-c2ccc(NC(=O)c3ccccc3)c3c2CNC3=O)cc1 [Example 133, N-(7-(4-isopropylphenyl)-3-oxoisoindolin-4-yl)benzamide]	> 20000 nM
Cc1cc(F)ccc1C(=O)Nc1ccc(-c2ccccc2)c2c1C(=O)NC2 [Example 137, 4-Fluoro-2-methyl-N-(3-oxo-7-phenylisoindolin-4-yl) benzamide]	> 20000 nM

Results, then the molecule that gave them:

IC50	Compound
170 nM	CC(=O)Nc1ccc(C(=O)Nc2ccc(-c3ccc(F)cc3)c3c2C(=O)NC3)cc1 [Example 124, 4-Acetamido-N-(7-(4-fluorophenyl)-3-oxoisoindolin-4-yl) benzamide]
1400 nM	O=C(Nc1ccc(-c2cccs2)c2c1C(=O)NC2)c1ccccc1 [Example 125, N-(3-oxo-7-(thiophen-2-yl)isoindolin-4-yl)benzamide]
600 nM	O=C(Nc1ccc(-c2ccco2)c2c1C(=O)NC2)c1ccccc1 [Example 126, N-(7-(furan-2-yl)-3-oxoisoindolin-4-yl)benzamide]
54 nM	COc1cccc(-c2ccc(NC(=O)c3ccco3)c3c2CNC3=O)c1OC [Example 134, N-(7-(2,3-dimethoxyphenyl)-3-oxoisoindolin-4-yl)furan-2-carboxamide]
140 nM	COc1cccc(-c2ccc(NC(=O)c3ccc(F)cc3)c3c2CNC3=O)c1OC [Example 135, N-(7-(2,3-dimethoxyphenyl)-3-oxoisoindolin-4-yl)-4-fluoro benzamide]
68 nM	COc1cccc(-c2ccc(NC(=O)c3cccs3)c3c2CNC3=O)c1OC [Example 136, N-(7-(2,3-dimethoxyphenyl)-3-oxoisoindolin-4-yl)thiophene-2-carboxamide]
200 nM	COc1ccccc1-c1ccc(NC(=O)c2ccc(NC(C)=O)cc2)c2c1CNC2=O [Example 138, 4-Acetamido-N-(7-(2-methoxyphenyl)-3-oxoisoindolin-4-yl) benzamide]
1800 nM	CN(C)c1ccc(C(=O)Nc2ccc(-c3ccccc3)c3c2C(=O)NC3)cc1 [Example 139, 4-(Dimethylamino)-N-(3-oxo-7-phenylisoindolin-4-yl) benzamide]
300 nM	CC(=O)Nc1ccc(C(=O)Nc2ccc(-c3ccco3)c3c2C(=O)NC3)cc1 [Example 140, 4-Acetamido-N-(7-(furan-2-yl)-3-oxoisoindolin-4-yl) benzamide]

Source: US9856216B2, “Compounds as TNIK, IKKε and TBK1 inhibitors and pharmaceutical composition comprising same” (GREEN CROSS CORPORATION, priority 2015, dated 2018)
